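Cells were grown in 96-well plates and exposed to each compound for 48 hours at five concentrations; endpoints were interpolated linearly between bracketing concentrations, or set to the highest concentration if not reached. Here, GI50 denotes the concentration required for 50% inhibition of growth.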 Activity calls are given as the source filed them. Cut-off read from the data, not from the text of the source: active = GI50 up to about 1.1 µM and inactive = higher.
Legend:
Assay in all cases: NCI tumour cell line growth inhibition, 48 h
[1] = tested on: HCC 2998
[2] = tested on: SK-MEL-2
[3] = tested on: SK-MEL-5
[4] = tested on: TK-10
[5] = tested on: RPMI-8226
[6] = tested on: ACHN
[7] = tested on: HCT-116
[8] = tested on: MOLT-4
[9] = tested on: NCI-H23
[10] = tested on: HT-29
[11] = tested on: NCI-H460
[12] = tested on: OVCAR-5
[13] = tested on: BT-549
[14] = tested on: EKVX
[15] = tested on: PC-3
[16] = tested on: OVCAR-4
[17] = tested on: RXF 393
[18] = tested on: SF-268
[19] = tested on: LOX IMVI
[20] = tested on: U-251
[21] = tested on: SK-OV-3
[22] = tested on: NCI-H522
[23] = tested on: CAKI-1
[24] = tested on: HCT-15
[25] = tested on: Hs-578T
[26] = tested on: 786-0
[27] = tested on: NCI/ADR-RES
[28] = tested on: SNB-19
[29] = tested on: A549
[30] = tested on: UACC-62
[31] = tested on: MDA-MB-231
[32] = tested on: OVCAR-3
[33] = tested on: MDA-MB-435
[34] = tested on: HOP-92
[35] = tested on: SK-MEL-28
[36] = tested on: MCF7
[37] = tested on: T47D
[38] = tested on: NCI-H226
[39] = tested on: SN12C
[40] = tested on: OVCAR-8
[41] = tested on: SF-295
[42] = tested on: MDA-N
[43] = tested on: SF-539
[44] = tested on: UACC-257
[45] = tested on: COLO 205
[46] = tested on: SW-620
[47] = tested on: KM12
[48] = tested on: IGROV-1
[49] = tested on: M14
[50] = tested on: SNB-75
[51] = tested on: HOP-62
[52] = tested on: DU-145
[53] = tested on: UO-31
[54] = tested on: A498
[55] = tested on: Malme-3M
[56] = tested on: K562

O=C(/C=C/c1ccc(Cl)cc1)Oc1ccc(C=C2CCC/C(=C\c3ccc(OC(=O)/C=C/c4ccc(Cl)cc4)cc3)C2=O)cc1
GI50 [1]: > 100 µM (inactive)
GI50 [2]: > 100 µM (inactive)
GI50 [3]: > 100 µM (inactive)
GI50 [4]: > 100 µM (inactive)
GI50 [5]: > 45.9 µM (inactive)
GI50 [6]: > 100 µM (inactive)
GI50 [7]: > 100 µM (inactive)
GI50 [8]: > 100 µM (inactive)
GI50 [9]: > 100 µM (inactive)
GI50 [10]: > 100 µM (inactive)
GI50 [11]: > 100 µM (inactive)
GI50 [12]: > 100 µM (inactive)
GI50 [13]: > 100 µM (inactive)
GI50 [14]: > 100 µM (inactive)
GI50 [15]: > 100 µM (inactive)
GI50 [16]: > 100 µM (inactive)
GI50 [17]: > 100 µM (inactive)
GI50 [18]: > 100 µM (inactive)
GI50 [19]: > 100 µM (inactive)
GI50 [20]: > 100 µM (inactive)
GI50 [21]: > 100 µM (inactive)
GI50 [22]: > 100 µM (inactive)
GI50 [23]: > 100 µM (inactive)
GI50 [24]: > 100 µM
GI50 [25]: > 100 µM (inactive)
GI50 [26]: > 100 µM (inactive)
GI50 [27]: > 100 µM (inactive)
GI50 [28]: > 100 µM (inactive)
GI50 [29]: > 100 µM (inactive)
GI50 [30]: > 100 µM (inactive)
GI50 [31]: > 100 µM (inactive)
GI50 [32]: > 100 µM (inactive)
GI50 [33]: > 100 µM (inactive)
GI50 [34]: > 100 µM (inactive)
GI50 [35]: > 100 µM (inactive)
GI50 [36]: > 100 µM (inactive)
GI50 [37]: > 100 µM (inactive)
GI50 [38]: > 100 µM (inactive)
GI50 [39]: > 100 µM (inactive)
GI50 [40]: > 100 µM (inactive)
GI50 [41]: > 100 µM (inactive)
GI50 [42]: > 100 µM (inactive)
GI50 [43]: > 100 µM (inactive)
GI50 [44]: > 100 µM (inactive)
GI50 [45]: > 100 µM (inactive)
GI50 [46]: > 100 µM (inactive)
GI50 [47]: > 100 µM (inactive)
GI50 [48]: > 100 µM (inactive)
GI50 [49]: > 100 µM (inactive)
GI50 [50]: > 79.1 µM (inactive)
GI50 [51]: > 100 µM (inactive)
GI50 [52]: > 100 µM (inactive)
GI50 [53]: > 100 µM (inactive)
GI50 [54]: > 100 µM (inactive)
GI50 [55]: > 100 µM (inactive)
GI50 [56]: > 100 µM (inactive)
